# Test results taken from ChEMBL document CHEMBL1250481, “Isoxazole analogs of curcuminoids with highly potent multidrug-resistant antimycobacterial activity” (2010).
# Assays:
# Type in all cases: functional
# [1] = tested on: Mycobacterium tuberculosis; assay: Antimycobacterial activity against isoniazid, rifampin and streptomycin-resistant Mycobacterium tuberculosis M3 after 24 hrs by microtiter alamar blue assay; details: M3, 24 h
# [2] = tested on: Mycobacterium tuberculosis; assay: Antimycobacterial activity against isoniazid, rifampin, ethambutol and streptomycin-resistant Mycobacterium tuberculosis M4 after 24 hrs by microtiter alamar blue assay; details: M4, 24 h
# [3] = tested on: Mycobacterium tuberculosis; assay: Antimycobacterial activity against isoniazid, rifampin and streptomycin-resistant Mycobacterium tuberculosis M5 after 24 hrs by microtiter alamar blue assay; details: M5, 24 h
# [4] = tested on: Mycobacterium tuberculosis; assay: Antimycobacterial activity against isoniazid and rifampin-resistant Mycobacterium tuberculosis M6 after 24 hrs by microtiter alamar blue assay; details: M6, 24 h
# [5] = tested on: Mycobacterium tuberculosis; assay: Antimycobacterial activity against isoniazid, rifampin, ethambutol and streptomycin-resistant Mycobacterium tuberculosis M8 after 24 hrs by microtiter alamar blue assay; details: M8, 24 h
# [6] = tested on: Mycobacterium tuberculosis; assay: Antimycobacterial activity against isoniazid and rifampin-resistant Mycobacterium tuberculosis M11 after 24 hrs by microtiter alamar blue assay; details: M11, 24 h
# [7] = tested on: Mycobacterium tuberculosis; assay: Antimycobacterial activity against isoniazid, rifampin and ethambutol-resistant Mycobacterium tuberculosis M16 after 24 hrs by microtiter alamar blue assay; details: M16, 24 h
# [8] = tested on: Mycobacterium tuberculosis; assay: Antimycobacterial activity against isoniazid, rifampin, ethambutol and streptomycin-resistant Mycobacterium tuberculosis M21 after 24 hrs by microtiter alamar blue assay; details: M21, 24 h
# [9] = tested on: Mycobacterium tuberculosis; assay: Antimycobacterial activity against isoniazid and rifampin -resistant Mycobacterium tuberculosis M22 after 24 hrs by microtiter alamar blue assay; details: M22, 24 h
# [10] = tested on: Mycobacterium tuberculosis; assay: Antimycobacterial activity against isoniazid and rifampin -resistant Mycobacterium tuberculosis M27 after 24 hrs by microtiter alamar blue assay; details: M27, 24 h
# [11] = tested on: Mycobacterium tuberculosis; assay: Antimycobacterial activity against isoniazid, rifampin, ethambutol, streptomycin, ofloxacin and ciprofloxacin-resistant Mycobacterium tuberculosis M46 after 24 hrs by microtiter alamar blue assay; details: M46, 24 h
# [12] = tested on: Mycobacterium tuberculosis; assay: Antimycobacterial activity against isoniazid, rifampin, ethambutol, streptomycin, ofloxacin and ciprofloxacin-resistant Mycobacterium tuberculosis M48 after 24 hrs by microtiter alamar blue assay; details: M48, 24 h
# [13] = tested on: Mycobacterium tuberculosis; assay: Antimycobacterial activity against isoniazid, rifampin, ethambutol, streptomycin, ofloxacin and ciprofloxacin-resistant Mycobacterium tuberculosis M53 after 24 hrs by microtiter alamar blue assay; details: M53, 24 h
Structure (SMILES),MIC [1] [µg/mL],MIC [2] [µg/mL],MIC [3] [µg/mL],MIC [4] [µg/mL],MIC [5] [µg/mL],MIC [6] [µg/mL],MIC [7] [µg/mL],MIC [8] [µg/mL],MIC [9] [µg/mL],MIC [10] [µg/mL],MIC [11] [µg/mL],MIC [12] [µg/mL],MIC [13] [µg/mL]
COc1cc(/C=C/c2cc(/C=C/c3ccc(OC)c(OC)c3)no2)ccc1O,0.195,1.56,3.12,0.39,3.12,3.12,1.56,3.12,0.39,0.195,1.56,1.56,3.12
CCCCCOc1ccc(/C=C/c2cc(/C=C/c3ccc(O)c(OC)c3)on2)cc1OC,0.39,1.56,1.56,0.78,3.12,3.12,1.25,3.12,0.78,0.39,1.56,3.12,3.12
CCCCCOc1ccc(/C=C/c2cc(/C=C/c3ccc(O)c(OC)c3)no2)cc1OC,1.56,1.56,1.56,3.12,6.25,6.25,1.56,6.25,6.25,1.56,1.56,3.12,3.12
COc1cc(/C=C/c2cc(/C=C/c3ccc(OC)c(OC)c3)on2)ccc1O,0.78,6.25,12.5,1.56,12.5,12.5,12.5,12.5,1.56,0.78,6.25,12.5,12.5
